Patent US9149450B2, “Ischemia/reperfusion protection compositions and methods of using” (priority 2007, dated 2015)

How the values were obtained:
[1] = tested on: rats subjected to 60% blood loss; assay: Rat hemorrhagic shock, 60% blood loss (Example 3); format: in vivo
Method: Rats infused with ketone bodies were subjected to 60% blood loss for at least 1 hour, followed by return of the shed blood. Endpoint measures of neuroprotection were quantitative analysis of neuronal survival and apoptosis in cortex, hippocampus and cerebellum as well as neurologic function exam scores. The objective was to determine the effectiveness of the D-form of beta-hydroxybutyrate (D-BHB) in conjunction with melatonin in protecting the brain from ischemia and providing protection from reperfusion injury after blood return.
The goal of the following experiments was to maintain 60% blood loss for at least three hours using a minimal amount of fluid in order to maintain viability. Sixty-percent blood loss was calculated by using the equation: Total blood volume=Animal body weight×0.06. A bolus volume of 1 ml ischemia/reperfusion protection composition per kilogram of animal body weight was given to animals after approximately 40% blood loss. Some animals only received a single 1 ml/kg bolus, while other animals received a slow infusion (100 μl/hr) to imitate an intravenous drip of solution after the bolus was given. […]
Once rats were fully anesthesized and stabilized for a 20 min period, blood loss was begun. […] Temperature was monitored with a rectal probe. […] Animal death was recorded when blood pressure, respiration, and precordial movement ceased (see FIG. 9 for a timeline). […]

[2] = tested on: hibernating ground squirrels; settings: in vivo, ip

Compound | survival compared with 4 M NaCl ([1]; 60% blood loss, same osmolarity, ambient temperature drift) | survival compared with NaCl, bolus followed by infusion ([1]; bolus then 100 μl/hr infusion, p-value <0.016) | transport into the heart during hibernation [2]
C[C@@H](O)CC(=O)O [D-BHB, D-beta-hydroxybutyrate] | survived longer | lived significantly longer | –
[13CH3][C@@H](O)[13CH2]C(=O)O [^13C-D-BHB, [2,4-^13C]D-beta-hydroxybutyrate] | – | – | efficiently transported into the heart
